Source: ChEMBL document CHEMBL6096723, “Discovery of novel capsaicin analogs as TRPV1 inhibitors for the treatment of idiopathic pulmonary fibrosis” (Eur J Med Chem, 2025)
Activity calls are given as the source filed them. No cut-off for these calls is given here.

What was measured:
[1] = test system: NIH3T3; assay: Anti-fibrotic activity in mouse NIH3T3 cells assessed as inhibition of TGFbeta-induced total collagen production measured after 48 hrs by Sirius Red Collagen Detection Kit relative to control; format: functional, cell-based; conditions: NIH3T3, 48 h
[2] = test system: Rattus norvegicus; assay: Zeta in Sprague-Dawley rat at 50 mg/kg, iv measured upto 4 hrs by UPLC-MS/MS analysis; format: ADME, organism-based; conditions: in vivo
[3] = Acute toxicity in Kunming female mouse assessed as Aspartate aminotransferase (AST) level at 180 mg/kg, ip measured after 14 days (reference value: 116.2 U/L); format: organism-based; conditions: in vivo, 336 h, time 14 day
[4] = Acute toxicity in Kunming mouse assessed as organ lesions in heart at 180 mg/kg, ip measured after 14 days by H and E staining based assay; format: organism-based; conditions: in vivo, 336 h, time 14 day
[5] = Clearance in Sprague-Dawley rat at 50 mg/kg, iv measured upto 4 hrs by UPLC-MS/MS analysis; format: ADME, organism-based; conditions: in vivo
[6] = MRT(0 to t) in Sprague-Dawley rat at 50 mg/kg, iv measured upto 4 hrs by UPLC-MS/MS analysis; format: ADME, organism-based; conditions: in vivo
[7] = AUMC(0 to t) in Sprague-Dawley rat at 50 mg/kg, iv measured upto 4 hrs by UPLC-MS/MS analysis; format: ADME, organism-based; conditions: in vivo
[8] = Acute toxicity in Kunming male mouse assessed as Creatinine (CREA) level at 180 mg/kg, ip measured after 14 days (reference value: 12.4 micromol/L); format: organism-based; conditions: in vivo, 336 h, time 14 day
[9] = test system: Rattus norvegicus; assay: Zeta in Sprague-Dawley rat at 50 mg/kg, ip measured upto 4 hrs by UPLC-MS/MS analysis; format: ADME, organism-based; conditions: in vivo
[10] = Acute toxicity in Kunming female mouse assessed as Creatine kinase (CK) level at 180 mg/kg, ip measured after 14 days (reference value: 779.7 U/L); format: organism-based; conditions: in vivo, 336 h, time 14 day
[11] = test system: NIH3T3; assay: Inhibition of TGFbeta-induced Smad2 phosphorylation in mouse NIH3T3 cells by Western blot analysis; format: functional, cell-based; conditions: dose 1-10 µM
[12] = Acute toxicity in Kunming female mouse assessed as Creatinine (CREA) level at 180 mg/kg, ip measured after 14 days (reference value: 15.4 micromol/L); format: organism-based; conditions: in vivo, 336 h, time 14 day
[13] = test system: Rattus norvegicus; assay: Cz in Sprague-Dawley rat at 50 mg/kg, po measured upto 4 hrs by UPLC-MS/MS analysis; format: ADME, organism-based; conditions: in vivo
[14] = MRT(0 to infinity) in Sprague-Dawley rat at 50 mg/kg, ip measured upto 4 hrs by UPLC-MS/MS analysis; format: ADME, organism-based; conditions: in vivo
[15] = Clearance in Sprague-Dawley rat at 50 mg/kg, po measured upto 4 hrs by UPLC-MS/MS analysis; format: ADME, organism-based; conditions: in vivo
[16] = AUC(0 to infinity) in Sprague-Dawley rat at 50 mg/kg, po measured upto 4 hrs by UPLC-MS/MS analysis; format: ADME, organism-based; conditions: in vivo
[17] = test system: Mus musculus; assay: Anti-pulmonary fibrotic activity against bleomycin-induced pulmonary fibrosis mouse model assessed as inhibition of alpha-SMA expression in lung tissue at 10 to 20 mg/kg, ip administered every alternative day for 8 to 21 days after modeling by immunohistochemical staining based assay; format: functional, organism-based; conditions: dose 10-20 mg/kg, time 8-21 day
[18] = Apparent volume of distribution in Sprague-Dawley rat at 50 mg/kg, ip measured upto 4 hrs by UPLC-MS/MS analysis; format: ADME, organism-based; conditions: in vivo
[19] = Acute toxicity in Kunming male mouse assessed as Lactate dehydrogenase (LDH) level at 180 mg/kg, ip measured after 14 days (reference value: 1776.1 U/L); format: organism-based; conditions: in vivo, 336 h, time 14 day
[20] = test system: NIH3T3; assay: Inhibition of TGFbeta-induced JNK phosphorylation in mouse NIH3T3 cells at 1 to 10 uM by Western blot analysis; format: functional, cell-based; conditions: dose 1-10 µM
[21] = Acute toxicity in Kunming male mouse assessed as Total bilirubin (T-Bil) level at 180 mg/kg, ip measured after 14 days (reference value: 12.99 micromol/L); format: organism-based; conditions: in vivo, 336 h, time 14 day
[22] = biological target: Transient receptor potential cation channel subfamily V member 1 (Mus musculus) (UniProt Q704Y3); assay: Thermal stabilization of TRPV1 in mouse NIH3T3 cells assessed as reduction in TRPV1 degradation at 10 uM at 40 to 65 degreeC measured after 30 mins by CETSA; format: cell-based
Chain of Transient receptor potential cation channel subfamily V member 1 (Mus musculus) (Q704Y3 whole entry): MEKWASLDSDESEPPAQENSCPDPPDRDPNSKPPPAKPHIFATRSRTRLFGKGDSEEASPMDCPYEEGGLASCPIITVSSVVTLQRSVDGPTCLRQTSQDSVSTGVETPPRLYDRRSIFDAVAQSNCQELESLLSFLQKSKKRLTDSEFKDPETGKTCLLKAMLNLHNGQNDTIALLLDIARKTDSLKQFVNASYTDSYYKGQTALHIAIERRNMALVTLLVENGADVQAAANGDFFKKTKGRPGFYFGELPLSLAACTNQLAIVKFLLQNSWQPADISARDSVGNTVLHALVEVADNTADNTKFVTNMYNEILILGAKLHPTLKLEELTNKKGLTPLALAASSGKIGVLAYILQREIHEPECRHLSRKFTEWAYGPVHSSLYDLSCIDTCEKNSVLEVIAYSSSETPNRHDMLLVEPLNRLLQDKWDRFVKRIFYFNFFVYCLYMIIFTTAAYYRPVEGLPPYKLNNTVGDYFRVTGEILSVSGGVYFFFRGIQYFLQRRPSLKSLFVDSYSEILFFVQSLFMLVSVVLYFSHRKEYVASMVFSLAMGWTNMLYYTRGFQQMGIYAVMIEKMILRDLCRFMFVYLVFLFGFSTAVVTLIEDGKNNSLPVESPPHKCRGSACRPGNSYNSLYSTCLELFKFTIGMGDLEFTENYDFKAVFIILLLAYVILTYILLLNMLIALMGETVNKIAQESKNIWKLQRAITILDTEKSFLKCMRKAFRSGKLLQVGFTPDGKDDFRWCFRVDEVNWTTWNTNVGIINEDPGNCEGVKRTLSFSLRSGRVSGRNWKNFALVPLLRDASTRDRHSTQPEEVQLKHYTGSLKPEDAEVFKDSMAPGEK

[23] = Acute toxicity in Kunming male mouse assessed as Aspartate aminotransferase (AST) level at 180 mg/kg, ip measured after 14 days (reference value: 116.7 U/L); format: organism-based; conditions: in vivo, 336 h, time 14 day
[24] = Acute toxicity in Kunming male mouse assessed as Direct bilirubin (D-Bil) level at 180 mg/kg, ip measured after 14 days (reference value: 6.21 micromol/L); format: organism-based; conditions: in vivo, 336 h, time 14 day

`O=C(/C=C/c1ccc(O)c(O)c1)CCCCc1ccccc1` gave an IC50 [1] of 510 nM, an Activity [2] of 1.07 and an Activity [3] of 160.5 U/L. For the same compound, the Activity [4] was “Non-toxic”, the CL [5] was 125 mL/min/kg and the MRT last at 4 h [6] was 44.6 min. The AUMCt [7] was 1969.254 ug/L.hr, the Activity [8] was 15.3 µmol/L and the Activity [9] was 1.98. The Activity [10] was 1115.7 U/L, the inhibition [11] was “Dose-dependent-effect; Compound Showed Superior Inhibition Effect Than Nintedanib” and the Activity [12] was 16.7 µmol/L. For the same compound, the Cz [13] was 2.54 µg/L, the MRT inf [14] was 34.2 min and the CL [15] was 3287.7 mL/min/kg. The AUC [16] was 102.37 ng·h/mL, the Activity [17] was “Active” and the Vz [18] was 9.28 L/kg. For the same compound, the Activity [19] was 2486.8 U/L, the inhibition [20] was “Active” and the Activity [21] was 10.43 µmol/L. The Activity [22] was “Active”, the Activity [23] was 125.2 U/L and the Activity [24] was 3.94 µmol/L.
